In the NIST ThermoML archive (doi:10.1021/je400722h):
Numbers after ± are expanded uncertainties.

How the values were obtained:
[1] = 101 kPa, Liquid; for speed of sound: Pulse-echo method; for mass density: Vibrating tube method
[2] = xn = mol fraction of the nth substance listed; details: 101 kPa, Liquid, x2 = 0; for speed of sound: Pulse-echo method; for mass density: Vibrating tube method

SMILES | speed of sound ([1]; 298.15 K) [m/s] | mass density ([1]; 298.15 K) [kg/m3] | speed of sound ([1]; 303.15 K) [m/s] | mass density ([1]; 303.15 K) [kg/m3] | speed of sound ([1]; 308.15 K) [m/s] | mass density ([1]; 308.15 K) [kg/m3] | speed of sound ([2]; 298.15 K) [m/s] | mass density ([2]; 298.15 K) [kg/m3] | speed of sound ([2]; 303.15 K) [m/s] | mass density ([2]; 303.15 K) [kg/m3] | speed of sound ([2]; 308.15 K) [m/s] | mass density ([2]; 308.15 K) [kg/m3]
C1COCO1 [1,3-dioxolane] | 1338.7 ± 1.1 | 1058.9 ± 1 | 1316.8 ± 1 | 1052.6 ± 1 | 1294.7 ± 1 | 1046.3 ± 1 | – | – | – | – | – | –
C1COCCO1 [1,4-dioxane] | 1346 ± 1.1 | 1027.9 ± 1 | 1324.4 ± 1.1 | 1022.3 ± 1 | 1302.5 ± 1.1 | 1016.6 ± 1 | – | – | – | – | – | –
Cc1ccccc1Cl [2-chlorotoluene] | 1298.7 ± 1.2 | 1077.3 ± 1 | 1280.7 ± 1.2 | 1072.5 ± 1 | 1262.7 ± 1.2 | 1067.6 ± 1 | – | – | – | – | – | –
C1CCOCC1 [tetrahydropyran] + Cc1ccccc1Cl | – | – | – | – | – | – | 1269.8 ± 1 | 879.13 ± 1 | 1246.8 ± 1 | 873.99 ± 1 | 1224.4 ± 1 | 868.83 ± 1

More lines, now with the values ahead:

speed of sound ([1]; 298.15 K) [m/s] | mass density ([1]; 298.15 K) [kg/m3] | speed of sound ([1]; 303.15 K) [m/s] | mass density ([1]; 303.15 K) [kg/m3] | speed of sound ([1]; 308.15 K) [m/s] | mass density ([1]; 308.15 K) [kg/m3] | speed of sound ([2]; 298.15 K) [m/s] | mass density ([2]; 298.15 K) [kg/m3] | speed of sound ([2]; 303.15 K) [m/s] | mass density ([2]; 303.15 K) [kg/m3] | speed of sound ([2]; 308.15 K) [m/s] | mass density ([2]; 308.15 K) [kg/m3] | SMILES
– | – | – | – | – | – | 1338.7 ± 1.1 | 1058.9 ± 1 | 1316.8 ± 1 | 1052.6 ± 1 | 1294.7 ± 1 | 1046.3 ± 1 | C1COCO1 [1,3-dioxolane] + Cc1ccccc1Cl
– | – | – | – | – | – | 1346 ± 1.1 | 1027.9 ± 1 | 1324.4 ± 1.1 | 1022.3 ± 1 | 1302.5 ± 1.1 | 1016.6 ± 1 | C1COCCO1 [1,4-dioxane] + Cc1ccccc1Cl
1269.8 ± 1 | 879.13 ± 1 | 1246.8 ± 1 | 873.99 ± 1 | 1224.4 ± 1 | 868.83 ± 1 | – | – | – | – | – | – | C1CCOCC1 [tetrahydropyran]
